pIC50: −log10 of the molar value.
biological target: SMYD2 (Homo sapiens (Human), UniProt Q9NRG4); experiment: SMYD2 biochemical assay (SMYD2 enzyme assay on peptide substrate, 3H-SAM Flashplate); settings: read-out: SMYD2 Biochem IC50; IC50 values are an average of n = 1 to n = 50
Sequence (Q9NRG4 whole entry): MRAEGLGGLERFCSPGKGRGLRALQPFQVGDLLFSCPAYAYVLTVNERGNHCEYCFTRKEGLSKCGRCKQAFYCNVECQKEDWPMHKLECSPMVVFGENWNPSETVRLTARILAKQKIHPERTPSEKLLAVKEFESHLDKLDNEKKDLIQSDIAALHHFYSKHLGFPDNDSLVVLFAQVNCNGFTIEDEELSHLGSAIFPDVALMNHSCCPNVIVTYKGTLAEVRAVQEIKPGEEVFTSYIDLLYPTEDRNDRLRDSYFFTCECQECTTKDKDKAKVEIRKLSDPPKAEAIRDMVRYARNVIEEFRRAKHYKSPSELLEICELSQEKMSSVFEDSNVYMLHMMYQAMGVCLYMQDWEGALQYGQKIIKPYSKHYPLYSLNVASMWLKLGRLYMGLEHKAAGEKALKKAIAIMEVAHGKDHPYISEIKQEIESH

SMILES | pIC50
O=C(NC1CN(Cc2cn(Cc3ccccc3)cn2)C1)c1cn(C2CC2)nn1 [compound 795, N-{1-[(1-benzyl-1H-imidazol-4-yl)methyl]azetidin-3-yl}-1-cyclopropyl-1H-1,2,3-triazole-4-carboxamide] | 5.15
COc1ccc(C(C)N2CC(NC(=O)c3cn(C4CC4)nn3)C2)c(OC)c1 (stereo not drawn) [compound 801, 1-cyclopropyl-N-{1-[1-(2,4-dimethoxyphenyl)ethyl]azetidin-3-yl}-1H-1,2,3-triazole-4-carboxamide] | 5.98
O=C(NC1CN(C(c2ccccc2)C(F)(F)F)C1)c1cn(C2CC2)nn1 (stereo not drawn) [compound 766, 1-cyclopropyl-N-[1-(2,2,2-trifluoro-1-phenylethyl)azetidin-3-yl]-1H-1,2,3-triazole-4-carboxamide] | < 4.30
COc1ccc(CC(C)N2CC(NC(=O)c3cn(C4CC4)nn3)C2)cc1OC (stereo not drawn) [compound 688, 1-cyclopropyl-N-{1-[1-(3,4-dimethoxyphenyl)propan-2-yl]azetidin-3-yl}-1H-1,2,3-triazole-4-carboxamide] | 5.29
CC(C)CN1CC(NC(=O)c2cn(C3CC3)nn2)C1 [compound 668, 1-cyclopropyl-N-[1-(2-methylpropyl)azetidin-3-yl]-1H-1,2,3-triazole-4-carboxamide] | 5.56
CN1CC(NC(=O)c2cn(C3CC3)nn2)C1 [compound 659, 1-cyclopropyl-N-(1-methylazetidin-3-yl)-1H-1,2,3-triazole-4-carboxamide] | 5.55
O=C(NC1CN(Cc2cn(CCc3ccccc3)cn2)C1)c1cc(C2CC2)cnn1 [compound 838, 5-cyclopropyl-N-(1-{[1-(2-phenylethyl)-1H-imidazol-4-yl]methyl}azetidin-3-yl)pyridazine-3-carboxamide] | 6.30
CC(c1ccccc1OC(F)(F)F)N1CC(NC(=O)c2cn(C3CC3)nn2)C1 (stereo not drawn) [compound 684, 1-cyclopropyl-N-(1-{1-[2-(trifluoromethoxy)phenyl]ethyl}azetidin-3-yl)-1H-1,2,3-triazole-4-carboxamide] | 5.67
O=C(NC1CN(C(CO)c2ccccc2)C1)c1cn(C2CC2)nn1 (stereo not drawn) [compound 674, 1-cyclopropyl-N-[1-(2-hydroxy-1-phenylethyl)azetidin-3-yl]-1H-1,2,3-triazole-4-carboxamide] | 5.37
COCCCN1CC(NC(=O)c2cn(C3CC3)nn2)C1 [compound 686, 1-cyclopropyl-N-[1-(3-methoxypropyl)azetidin-3-yl]-1H-1,2,3-triazole-4-carboxamide] | 5.42
O=C(NC1CN(CC2COC2)C1)c1cn(C2CC2)nn1 [compound 666, 1-cyclopropyl-N-[1-(oxetan-3-ylmethyl)azetidin-3-yl]-1H-1,2,3-triazole-4-carboxamide] | 5.22
COc1cccc(C(N2CC(NC(=O)c3cn(C4CC4)nn3)C2)C(F)(F)F)c1 (stereo not drawn) [compound 729, 1-cyclopropyl-N-{1-[2,2,2-trifluoro-1-(3-methoxyphenyl)ethyl]azetidin-3-yl}-1H-1,2,3-triazole-4-carboxamide] | < 4.30
COCCn1cc(CN2CC(NC(=O)c3cn(C4CC4)nn3)C2)cn1 [compound 717, 1-cyclopropyl-N-(1-{[1-(2-methoxyethyl)-1H-pyrazol-4-yl]methyl}azetidin-3-yl)-1H-1,2,3-triazole-4-carboxamide] | 5.51
COc1c(OCCO)cccc1C(C)N1CC(NC(=O)c2cn(C3CC3)nn2)C1 (stereo not drawn) [compound 776, 1-cyclopropyl-N-(1-{1-[3-(2-hydroxyethoxy)-2-methoxyphenyl]ethyl}azetidin-3-yl)-1H-1,2,3-triazole-4-carboxamide] | 6.46
COc1ccc(CN2CC(NC(=O)c3cn(C4CC4)nn3)C2)cc1 [compound 826, 1-cyclopropyl-N-{1-[(4-methoxyphenyl)methyl]azetidin-3-yl}-1H-1,2,3-triazole-4-carboxamide] | 5.74
CC(C)N1CC(NC(=O)c2cn(CCO)nn2)C1 [compound 703, 1-(2-hydroxyethyl)-N-[1-(propan-2-yl)azetidin-3-yl]-1H-1,2,3-triazole-4-carboxamide] | < 4.30
O=C(NC1CN(CCCO)C1)c1cn(C2CC2)nn1 [compound 707, 1-cyclopropyl-N-[1-(3-hydroxypropyl)azetidin-3-yl]-1H-1,2,3-triazole-4-carboxamide] | 5.72
CC(c1cnccn1)N1CC(NC(=O)c2cn(C3CC3)nn2)C1 (stereo not drawn) [compound 745, 1-cyclopropyl-N-{1-[1-(pyrazin-2-yl)ethyl]azetidin-3-yl}-1H-1,2,3-triazole-4-carboxamide] | 5.13

Further lines, results first:

pIC50 | SMILES
5.62 | O=C(NC1CN(Cc2ccc(Cn3cccn3)cc2)C1)c1cc(C2CC2)cnn1 [compound 954, N-(1-(4-((1H-pyrazol-1-yl)methyl)benzyl)azetidin-3-yl)-5-cyclopropylpyridazine-3-carboxamide]
6.06 | CC(c1ccc(COc2ccccc2)cc1)N1CC(NC(=O)c2cn(C3CC3)nn2)C1 (stereo not drawn) [compound 974, 1-cyclopropyl-N-(1-(1-(4-(phenoxymethyl)phenyl)ethyl)azetidin-3-yl)-1H-1,2,3-triazole-4-carboxamide]
< 4.30 | CC(NC(=O)c1cn(C2CC2)nn1)C1CCCCN1 (stereo not drawn) [compound 1000, 1-cyclopropyl-N-(1-(piperidin-2-yl)ethyl)-1H-1,2,3-triazole-4-carboxamide]
5.62 | O=C(NC1CN(Cc2cnn(CC3CCOCC3)c2)C1)c1cn(C2CC2)nn1 [compound 949, 1-cyclopropyl-N-(1-((1-((tetrahydro-2H-pyran-4-yl)methyl)-1H-pyrazol-4-yl)methyl)azetidin-3-yl)-1H-1,2,3-triazole-4-carboxamide]
5.11 | O=C(NC1CN(Cc2cn[nH]c2)C1)c1cn(C2CC2)nn1 [compound 940, N-(1-((1H-pyrazol-4-yl)methyl)azetidin-3-yl)-1-cyclopropyl-1H-1,2,3-triazole-4-carboxamide]
6.12 | O=C(NC1CN(Cc2cnn(Cc3nccs3)c2)C1)c1cn(C2CC2)nn1 [compound 991, 1-cyclopropyl-N-(1-((1-(thiazol-2-ylmethyl)-1H-pyrazol-4-yl)methyl)azetidin-3-yl)-1H-1,2,3-triazole-4-carboxamide]
5.27 | CN(C)CCCNC(=O)c1cn(C2CC2)nn1 [compound 921, 1-cyclopropyl-N-(3-(dimethylamino)propyl)-1H-1,2,3-triazole-4-carboxamide]
5.44 | COc1cc(C(C)N2CC(NC(=O)c3cn(C4CC4)nn3)C2)ccc1OCc1ccccc1 (stereo not drawn) [compound 939, N-(1-(1-(4-(benzyloxy)-3-methoxyphenyl)ethyl)azetidin-3-yl)-1-cyclopropyl-1H-1,2,3-triazole-4-carboxamide]
5.89 | COc1ccccc1Cn1cc(CN2CC(NC(=O)c3cn(C4CC4)nn3)C2)cn1 [compound 995, 1-cyclopropyl-N-(1-((1-(2-methoxybenzyl)-1H-pyrazol-4-yl)methyl)azetidin-3-yl)-1H-1,2,3-triazole-4-carboxamide]
4.68 | CN(C)CCNC(=O)c1cc(C2CC2)cnn1 [compound 869, 5-cyclopropyl-N-[2-(dimethylamino)ethyl]pyridazine-3-carboxamide]
6.19 | CC(c1ccc(CNc2ccccc2)cc1)N1CC(NC(=O)c2cn(C3CC3)nn2)C1 (stereo not drawn) [compound 922, 1-cyclopropyl-N-(1-(1-(4-((phenylamino)methyl)phenyl)ethyl)azetidin-3-yl)-1H-1,2,3-triazole-4-carboxamide]
5.57 | COc1ccc(C(C)N2CC(NC(=O)c3cn(C4CC4)nn3)C2)nc1 (stereo not drawn) [compound 923, 1-cyclopropyl-N-(1-(1-(5-methoxypyridin-2-yl)ethyl)azetidin-3-yl)-1H-1,2,3-triazole-4-carboxamide]
6.22 | COc1ccc(C(C)N2CC(NC(=O)c3cc(C4CC4)cnn3)C2)cc1 (stereo not drawn) [compound 958, 5-cyclopropyl-N-(1-(1-(4-methoxyphenyl)ethyl)azetidin-3-yl)pyridazine-3-carboxamide]
5.74 | CC(c1cc(Cl)ccc1C(F)(F)F)N1CC(NC(=O)c2cn(C3CC3)nn2)C1 (stereo not drawn) [compound 976, N-(1-(1-(5-chloro-2-(trifluoromethyl)phenyl)ethyl)azetidin-3-yl)-1-cyclopropyl-1H-1,2,3-triazole-4-carboxamide]
6.45 | CC[C@@H](c1cccc(Cl)c1)N1CC(NC(=O)c2cc(C3CC3)cnn2)C1 [compound 866, N-{1-[(1S)-1-(3-chlorophenyl)propyl]azetidin-3-yl}-5-cyclopropylpyridazine-3-carboxamide]
6.02 | CC(=O)Nc1ccc(COc2ccc(C(C)N3CC(NC(=O)c4cn(C5CC5)nn4)C3)cc2)cc1 (stereo not drawn) [compound 1020, N-(1-(1-(4-((4-acetamidobenzyl)oxy)phenyl)ethyl)azetidin-3-yl)-1-cyclopropyl-1H-1,2,3-triazole-4-carboxamide]
< 4.30 | CC(c1cc(Cl)ccc1Oc1ccc(F)cc1)N1CC(NC(=O)c2cn(C3CC3)nn2)C1 (stereo not drawn) [compound 989, N-(1-(1-(5-chloro-2-(4-fluorophenoxy)phenyl)ethyl)azetidin-3-yl)-1-cyclopropyl-1H-1,2,3-triazole-4-carboxamide]
7.14 | O=C(NC1CN(Cc2cnn(Cc3ccccc3)c2)C1)c1cn(C2CC2)cn1 [compound 1022, N-(1-((1-benzyl-1H-pyrazol-4-yl)methyl)azetidin-3-yl)-1-cyclopropyl-1H-imidazole-4-carboxamide]
6.72 | COc1ccccc1[C@@H](C)N1CC(NC(=O)c2cc(C3CC3)cnn2)C1 [compound 842, 5-cyclopropyl-N-{1-[(1R)-1-(2-methoxyphenyl)ethyl]azetidin-3-yl}pyridazine-3-carboxamide]
5.96 | O=C(NC1CN(Cc2ccc(OCc3cscn3)cc2)C1)c1cn(C2CC2)nn1 [compound 999, 1-cyclopropyl-N-(1-(4-(thiazol-4-ylmethoxy)benzyl)azetidin-3-yl)-1H-1,2,3-triazole-4-carboxamide]
6.00 | CC(C)(c1ccc(OCc2ccccc2)cc1)N1CC(NC(=O)c2cn(C3CC3)nn2)C1 [compound 980, N-(1-(2-(4-(benzyloxy)phenyl)propan-2-yl)azetidin-3-yl)-1-cyclopropyl-1H-1,2,3-triazole-4-carboxamide]

Source: patent US10266526B2, “Substituted 1,2,3-triazoles as SMYD inhibitors for treating cancer” (EPIZYME, INC., priority 2014, dated 2019)
